Measurements taken from the supplement of paper PMC8612539.
≈ marks a conversion by molar mass, not a printed value.

Tests used:
[1] = system: Enterococcus spp.; assay: minimum inhibitory concentration (MIC)
Procedure: (§1)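 Broth microdilution MIC (Sensititre BOPO7F bovine plate, CLSI methods) of 19 antimicrobials against field isolates of P. multocida, M. haemolytica, H. somni (deep nasopharyngeal swabs) and E. coli, Enterococcus spp. (rectal swabs) from weaned dairy heifers. Incubation 16-24 h at 35 C. MIC is the lowest concentration preventing visible growth. Values with <= or > lie at the tested range limits. Trimethoprim-sulfamethoxazole is given as the trimethoprim component of a 1:19 mixture.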

[2] = system: Histophilus somni; assay: minimum inhibitory concentration (MIC)
Procedure: as §1

CN(C)[C@@H]1C(O)=C(C(N)=O)C(=O)[C@@]2(O)C(O)=C3C(=O)c4c(O)cccc4[C@@](C)(O)[C@H]3C[C@@H]12 [Tetracycline]
minimum inhibitory concentration [mg/L]
Conditions	[1]	[2]
isolate (source animal id): 2	1 (≈ 2.25 µM)	–
isolate (source animal id): 3	–	4 (≈ 9 µM)
isolate (source animal id): 4	–	4 (≈ 9 µM)
isolate (source animal id): 7	–	8 (≈ 18 µM)
isolate (source animal id): 14	–	8 (≈ 18 µM)
isolate (source animal id): 15	–	4 (≈ 9 µM)
isolate (source animal id): 17	–	8 (≈ 18 µM)
isolate (source animal id): 18	–	8 (≈ 18 µM)
isolate (source animal id): 20	–	4 (≈ 9 µM)
isolate (source animal id): 23	–	≤ 0.5
isolate (source animal id): 35	> 8	–
isolate (source animal id): 42	> 8	–
isolate (source animal id): 44	> 8	–
isolate (source animal id): 45	–	> 8
isolate (source animal id): 53	–	> 8
isolate (source animal id): 79	> 8	–
isolate (source animal id): 83	–	2 (≈ 4.5 µM)
isolate (source animal id): 88	1 (≈ 2.25 µM)	8 (≈ 18 µM)
isolate (source animal id): 91	2 (≈ 4.5 µM)	–
isolate (source animal id): 92	≤ 0.5	8 (≈ 18 µM)
isolate (source animal id): 93	–	8 (≈ 18 µM)
isolate (source animal id): 99	–	4 (≈ 9 µM)
isolate (source animal id): 100	–	4 (≈ 9 µM)
isolate (source animal id): 105	–	2 (≈ 4.5 µM)
isolate (source animal id): 107	–	4 (≈ 9 µM)
isolate (source animal id): 108	–	8 (≈ 18 µM)
isolate (source animal id): 109	–	4 (≈ 9 µM)
isolate (source animal id): 110	–	4 (≈ 9 µM)
isolate (source animal id): 111	1 (≈ 2.25 µM)	–
isolate (source animal id): 117	–	8 (≈ 18 µM)
isolate (source animal id): 121	–	8 (≈ 18 µM)
isolate (source animal id): 122	> 8	–
isolate (source animal id): 123	> 8	4 (≈ 9 µM)
isolate (source animal id): 124	–	2 (≈ 4.5 µM)
isolate (source animal id): 127	–	1 (≈ 2.25 µM)
isolate (source animal id): 128	–	> 8
isolate (source animal id): 130	–	2 (≈ 4.5 µM)
isolate (source animal id): 132	–	> 8
isolate (source animal id): 133	> 8	–
isolate (source animal id): 135	–	> 8
isolate (source animal id): 140	–	> 8
isolate (source animal id): 141	–	≤ 0.5
isolate (source animal id): 142	–	1 (≈ 2.25 µM)
isolate (source animal id): 144	–	2 (≈ 4.5 µM)
isolate (source animal id): 146	–	> 8
isolate (source animal id): 147	–	1 (≈ 2.25 µM)
isolate (source animal id): 151	–	> 8
isolate (source animal id): 153	–	4 (≈ 9 µM)
isolate (source animal id): 154	–	1 (≈ 2.25 µM)
isolate (source animal id): 156	–	2 (≈ 4.5 µM)
isolate (source animal id): 157	–	4 (≈ 9 µM)
isolate (source animal id): 158	> 8	–
isolate (source animal id): 168	> 8	–
isolate (source animal id): 169	> 8	–
isolate (source animal id): 171	≤ 0.5	–
isolate (source animal id): 175	> 8	–
isolate (source animal id): 176	–	4 (≈ 9 µM)
isolate (source animal id): 177	> 8	–
isolate (source animal id): 181	> 8	–
isolate (source animal id): 182	> 8	–
isolate (source animal id): 183	> 8	4 (≈ 9 µM)
isolate (source animal id): 186	–	4 (≈ 9 µM)
isolate (source animal id): 187	> 8	–
isolate (source animal id): 190	> 8	–
isolate (source animal id): 194	≤ 0.5	–
isolate (source animal id): 195	> 8	–
isolate (source animal id): 196	–	4 (≈ 9 µM)
isolate (source animal id): 197	> 8	–
isolate (source animal id): 198	–	2 (≈ 4.5 µM)
isolate (source animal id): 200	–	4 (≈ 9 µM)
isolate (source animal id): 206	–	4 (≈ 9 µM)
isolate (source animal id): 208	–	4 (≈ 9 µM)
isolate (source animal id): 210	–	1 (≈ 2.25 µM)
isolate (source animal id): 211	> 8	–
isolate (source animal id): 212	–	1 (≈ 2.25 µM)
isolate (source animal id): 214	> 8	–
isolate (source animal id): 215	–	4 (≈ 9 µM)
isolate (source animal id): 216	–	4 (≈ 9 µM)
isolate (source animal id): 218	–	2 (≈ 4.5 µM)
isolate (source animal id): 219	–	2 (≈ 4.5 µM)
isolate (source animal id): 222	> 8	–
isolate (source animal id): 223	≤ 0.5	–
isolate (source animal id): 224	–	4 (≈ 9 µM)
isolate (source animal id): 228	> 8	8 (≈ 18 µM)
isolate (source animal id): 230	> 8	4 (≈ 9 µM)
isolate (source animal id): 233	–	> 8
isolate (source animal id): 235	> 8	–
isolate (source animal id): 236	≤ 0.5	–
isolate (source animal id): 238	–	≤ 0.5
isolate (source animal id): 239	≤ 0.5	> 8
isolate (source animal id): 241	> 8	4 (≈ 9 µM)
isolate (source animal id): 242	–	4 (≈ 9 µM)
isolate (source animal id): 243	–	≤ 0.5
isolate (source animal id): 244	≤ 0.5	–
isolate (source animal id): 245	–	> 8
isolate (source animal id): 246	> 8	≤ 0.5
isolate (source animal id): 247	> 8	4 (≈ 9 µM)
isolate (source animal id): 248	–	≤ 0.5
isolate (source animal id): 250	> 8	8 (≈ 18 µM)
isolate (source animal id): 251	–	> 8
isolate (source animal id): 252	> 8	4 (≈ 9 µM)
isolate (source animal id): 254	–	4 (≈ 9 µM)
isolate (source animal id): 258	–	4 (≈ 9 µM)
isolate (source animal id): 259	–	4 (≈ 9 µM)
isolate (source animal id): 262	–	> 8
isolate (source animal id): 264	–	1 (≈ 2.25 µM)
isolate (source animal id): 265	–	> 8
isolate (source animal id): 266	–	2 (≈ 4.5 µM)
isolate (source animal id): 267	–	2 (≈ 4.5 µM)
isolate (source animal id): 268	1 (≈ 2.25 µM)	–
isolate (source animal id): 269	–	1 (≈ 2.25 µM)
isolate (source animal id): 271	–	2 (≈ 4.5 µM)
isolate (source animal id): 272	–	> 8
isolate (source animal id): 274	–	> 8
isolate (source animal id): 276	–	≤ 0.5
isolate (source animal id): 278	–	2 (≈ 4.5 µM)
isolate (source animal id): 280	–	> 8
isolate (source animal id): 281	–	2 (≈ 4.5 µM)
isolate (source animal id): 282	≤ 0.5	–
isolate (source animal id): 283	–	2 (≈ 4.5 µM)
isolate (source animal id): 285	≤ 0.5	–
isolate (source animal id): 288	–	4 (≈ 9 µM)
isolate (source animal id): 289	≤ 0.5	–
isolate (source animal id): 290	≤ 0.5	–
isolate (source animal id): 291	–	8 (≈ 18 µM)
isolate (source animal id): 292	–	2 (≈ 4.5 µM)
isolate (source animal id): 296	≤ 0.5	1 (≈ 2.25 µM)
isolate (source animal id): 298	> 8	–
isolate (source animal id): 301	≤ 0.5	–
isolate (source animal id): 306	–	2 (≈ 4.5 µM)
isolate (source animal id): 310	> 8	–
isolate (source animal id): 320	> 8	–
isolate (source animal id): 331	≤ 0.5	–
isolate (source animal id): 333	≤ 0.5	–
isolate (source animal id): 336	–	2 (≈ 4.5 µM)
isolate (source animal id): 337	–	2 (≈ 4.5 µM)
isolate (source animal id): 341	> 8	1 (≈ 2.25 µM)
